Data as given in US7030143B2, “Heterocyclic compounds” (Nippon Shinyaku Co., Ltd., priority 2000, dated 2006).

Assays:
KK-A^y mice = assay: Effects on carbohydrate and lipid metabolism in KK-A^y mouse; type: in vivo; conditions: oral, 4 days; for Percent change of each parameter compared to control group (%): AI: Atherogenic Index = (TC − HDL-C)/HDL-C; for Percent change of each parameter compared to control group (%): BG: plasma glucose level; for Percent change of each parameter compared to control group (%): Ins: plasma insulin level; for Percent change of each parameter compared to control group (%): TG: plasma triglyceride level; for Percent change of each parameter compared to control group (%): HDL-C: serum HDL-C level; for Percent change of each parameter compared to control group (%): (V)LDL-C: sum of VLDL-C and LDL-C level in serum
Method: The experiment was conducted using the compounds described in the Examples as test compounds and Troglitazone (5-[4-(6-hydroxy-2,5,7,8-tetramethylchroman-2-ylmethoxy)benzyl]-2,4-thiazolidinedione) as a control compound.
Each test compound was orally administered to KK-A^y mice (10 week old, male), NIDDM model animal, for 4 days at a given dosage. On the next day of the last administration, blood was collected from tail end blood vessels under non-fasting conditions to prepare heparinized plasma. Thereafter, blood was collected from an abdominal large vein under pentobarbital anesthesia to prepare serum. The glucose level (BG), triglyceride level (TG) and insulin level (Ins) in plasma were measured using a glucose CII-test Wako (Wako Pure Chemical Industries, Ltd), CLINTECH TG-S (IATORON LABORATORIES, INC.) or triglyceride E-test WAKO (Wako Pure Chemical Industries, Ltd), and a rat insulin measurement kit (Morinaga Biochemistry Research Institute) or REBIS-insulin-mouse-T (Mouse Insulin ELISA (TMB) KIT, Shibayagi Co., Ltd), respectively. Also, the sum of VLDL-C level and LDL-C level in serum (hereinafter, referred to as “(V)LDL-C”), total cholesterol level (TC) and HDL-C level were measured using a high performance liquid chromatography system for the measurement of lipoprotein cholesterol (TOSOH CORPORATION). (V)LDL-C level was measured because VLDL-C and LDL-C cannot be measured separately. Atherogenic Index (AI) was calculated according to the following formula: AI=[(TC level)−(HDL-C level)]/(HDL-C level).

SMILES: Cc1oc(-c2ccccc2)nc1CCCCCOC(C)(C)C(=O)O (hydrate or solvate) [Example 34, 2-Methyl-2-[5-(5-methyl-2-phenyloxazol-4-yl)pentyloxy]propionic acid]
- melting point: 66 to 68 °C

SMILES: Cc1oc(-c2ccccc2)nc1CCCCCCCOC(C)(C)C(=O)O [Example 36, 2-Methyl-2-[7-(5-methyl-2-phenyloxazol-4-yl)heptyloxy]propionic acid]
- melting point: 70 to 71 °C

SMILES: Cc1oc(-c2ccc(F)cc2)nc1CCCCCCOC(C)(C)C(=O)O [Example 40, 2-{6-[2-(4-Fluorophenyl)-5-methyloxazol-4-yl]hexyloxy}-2-methylpropionic acid]
- melting point: 64 to 67 °C

SMILES: Cc1oc(-c2ccc(C(C)(C)C)cc2)nc1CCCCCCOC(C)(C)C(=O)O [Example 41, 2-{6-[2-(4-tert-Butylphenyl)-5-methyloxazol-4-yl]hexyloxy}-2-methylpropionic acid]
- melting point: 89 to 91 °C

SMILES: CCc1oc(-c2ccccc2)nc1CCCCCCOC(C)(C)C(=O)O [Example 42, 2-[6-(5-Ethyl-2-phenyloxazol-4-yl)hexyloxy]-2-methylpropionic acid]
- melting point: 88.5 to 89 °C

SMILES: CC(C)(OCCCCCCc1coc(-c2ccccc2)n1)C(=O)O [Example 43, 2-Methyl-2-[6-(2-phenyloxazol-4-yl)hexyloxy]propionic acid]
- melting point: 75 to 77 °C

SMILES: CC(C)(OCCCCCCCc1coc(-c2ccccc2)n1)C(=O)O [Example 44, 2-Methyl-2-[7-(2-phenyloxazol-4-yl)heptyloxy]propionic acid]
- melting point: 72 to 75 °C

SMILES: CC(C)(OCCCCCCCCc1coc(-c2ccccc2)n1)C(=O)O [Example 45, 2-Methyl-2-[8-(2-phenyloxazol-4-yl)octyloxy]propionic acid]
- melting point: 59 to 61 °C

SMILES: CC(C)(OCCCCCCCc1coc(-c2ccc(Cl)cc2)n1)C(=O)O [Example 46, 2-{7-[2-(4-Chlorophenyl)oxazol-4-yl]heptyloxy}-2-methylpropionic acid]
- melting point: 91 to 93 °C

SMILES: CC(C)(OCCCCCCCc1coc(-c2ccc(F)cc2)n1)C(=O)O [Example 47, 2-{7-[2-(4-Fluorophenyl)oxazol-4-yl]heptyloxy}-2-methylpropionic acid]
- melting point: 67 to 74 °C

SMILES: CC(C)(OCCCCCCc1coc(-c2ccc(F)cc2)n1)C(=O)O [Example 48, 2-{6-[2-(4-Fluorophenyl)oxazol-4-yl]hexyloxy}-2-methylpropionic acid]
- melting point: 80 to 83 °C

SMILES: CC(C)(OCCCCCCCc1csc(-c2ccccc2)n1)C(=O)O [Example 49, 2-Methyl-2-[7-(2-phenylthiazol-4-yl)heptyloxy]propionic acid]
- melting point: 71 to 72 °C

SMILES: CC(C)(OCCCCCCCCc1csc(-c2ccccc2)n1)C(=O)O [Example 50, 2-Methyl-2-[8-(2-phenylthiazol-4-yl)octyloxy]propionic acid]
- melting point: 64 to 70 °C

SMILES: Cc1oc(-c2ccncc2)nc1CCCCCCOC(C)(C)C(=O)O [Example 51, 2-Methyl-2-{6-[5-methyl-2-(4-pyridyl)oxazol-4-yl]hexyloxy}propionic acid]
- melting point: 91 to 93 °C

SMILES: Cc1ccc(-c2nc(CCCCC3COC(C)(C(=O)O)OC3)c(C)s2)cc1 (stereo not shown) [Example 70, 2-Methyl-c-5-{4-[5-methyl-2-(p-tolyl)thiazol-4-yl]-butyl}-1,3-dioxane-r-2-carboxylic acid]
- Percent change of each parameter compared to control group (%): AI (KK-A^y mice; dose 3 mg/kg): −53%
- Percent change of each parameter compared to control group (%): BG (KK-A^y mice; dose 3 mg/kg): −15%
- Percent change of each parameter compared to control group (%): Ins (KK-A^y mice; dose 3 mg/kg): 5%
- Percent change of each parameter compared to control group (%): TG (KK-A^y mice; dose 3 mg/kg): −37%
- Percent change of each parameter compared to control group (%): HDL-C (KK-A^y mice; dose 3 mg/kg): 41%
- Percent change of each parameter compared to control group (%): (V)LDL-C (KK-A^y mice; dose 3 mg/kg): −33%

SMILES: Cc1cccc(-c2nc(CCCCC3COC(C)(C(=O)O)OC3)c(C)o2)c1 (stereo not shown) [Example 71, 2-Methyl-c-5-{4-[5-methyl-2-(m-tolyl)oxazol-4-yl]butyl}-1,3-dioxane-r-2-carboxylic acid]
- Percent change of each parameter compared to control group (%): AI (KK-A^y mice; dose 3 mg/kg): −90%
- Percent change of each parameter compared to control group (%): BG (KK-A^y mice; dose 3 mg/kg): −51%
- Percent change of each parameter compared to control group (%): Ins (KK-A^y mice; dose 3 mg/kg): −61%
- Percent change of each parameter compared to control group (%): TG (KK-A^y mice; dose 3 mg/kg): −89%
- Percent change of each parameter compared to control group (%): HDL-C (KK-A^y mice; dose 3 mg/kg): 1%
- Percent change of each parameter compared to control group (%): (V)LDL-C (KK-A^y mice; dose 3 mg/kg): −90%

SMILES: Cc1ccc(-c2nc(CCCCC3COC(C)(C(=O)O)OC3)c(C)o2)cc1C (stereo not shown) [Example 73, 2-Methyl-c-5-{4-[5-methyl-2-(3,4-dimethylphenyl)-oxazol-4-yl]butyl}-1,3-dioxane-r-2-carboxylic acid]
- Percent change of each parameter compared to control group (%): AI (KK-A^y mice; dose 3 mg/kg): −85%
- Percent change of each parameter compared to control group (%): BG (KK-A^y mice; dose 3 mg/kg): −53%
- Percent change of each parameter compared to control group (%): Ins (KK-A^y mice; dose 3 mg/kg): −68%
- Percent change of each parameter compared to control group (%): TG (KK-A^y mice; dose 3 mg/kg): −92%
- Percent change of each parameter compared to control group (%): HDL-C (KK-A^y mice; dose 3 mg/kg): −8%
- Percent change of each parameter compared to control group (%): (V)LDL-C (KK-A^y mice; dose 3 mg/kg): −90%

SMILES: COc1ccc(-c2nc(CCCCC3COC(C)(C(=O)O)OC3)c(C)o2)cc1 (stereo not shown) [Example 74, 2-Methyl-c-5-{4-[5-methyl-2-(4-methoxyphenyl)oxazol-4-yl]butyl}-1,3-dioxane-r-2-carboxylic acid]
- Percent change of each parameter compared to control group (%): AI (KK-A^y mice; dose 3 mg/kg): −72%
- Percent change of each parameter compared to control group (%): BG (KK-A^y mice; dose 3 mg/kg): −18%
- Percent change of each parameter compared to control group (%): Ins (KK-A^y mice; dose 3 mg/kg): −33%
- Percent change of each parameter compared to control group (%): TG (KK-A^y mice; dose 3 mg/kg): −46%
- Percent change of each parameter compared to control group (%): HDL-C (KK-A^y mice; dose 3 mg/kg): 55%
- Percent change of each parameter compared to control group (%): (V)LDL-C (KK-A^y mice; dose 3 mg/kg): −58%

SMILES: Cc1oc(-c2cccs2)nc1CCCCC1COC(C)(C(=O)O)OC1 (stereo not shown) [Example 75, 2-Methyl-c-5-{4-[5-methyl-2-(2-thienyl)oxazol-4-yl]butyl}-1,3-dioxane-r-2-carboxylic acid]
- Percent change of each parameter compared to control group (%): AI (KK-A^y mice; dose 3 mg/kg): −61%
- Percent change of each parameter compared to control group (%): BG (KK-A^y mice; dose 3 mg/kg): −23%
- Percent change of each parameter compared to control group (%): Ins (KK-A^y mice; dose 3 mg/kg): −29%
- Percent change of each parameter compared to control group (%): TG (KK-A^y mice; dose 3 mg/kg): −47%
- Percent change of each parameter compared to control group (%): HDL-C (KK-A^y mice; dose 3 mg/kg): 37%
- Percent change of each parameter compared to control group (%): (V)LDL-C (KK-A^y mice; dose 3 mg/kg): −50%

SMILES: Cc1ccc(-c2nc(Cc3cccc(CC4COC(C)(C(=O)O)OC4)c3)c(C)o2)cc1 (stereo not shown) [Example 81, 2-Methyl-t-5-[3-{[5-methyl-2-(p-tolyl)oxazol-4-yl]methyl}benzyl]-1,3-dioxane-r-2-carboxylic acid]
- Percent change of each parameter compared to control group (%): AI (KK-A^y mice; dose 1 mg/kg): −83%
- Percent change of each parameter compared to control group (%): BG (KK-A^y mice; dose 1 mg/kg): −8%
- Percent change of each parameter compared to control group (%): Ins (KK-A^y mice; dose 1 mg/kg): −21%
- Percent change of each parameter compared to control group (%): TG (KK-A^y mice; dose 1 mg/kg): −62%
- Percent change of each parameter compared to control group (%): HDL-C (KK-A^y mice; dose 1 mg/kg): 32%
- Percent change of each parameter compared to control group (%): (V)LDL-C (KK-A^y mice; dose 1 mg/kg): −76%

SMILES: Cc1ccc(-c2nc(CCCCCCOC(C)(C)C#N)c(C)o2)cc1 [Example 85, 2-Methyl-2-{6-[5-methyl-2-(p-tolyl)oxazol-4-yl]-hexyloxy}propiononitrile]
- melting point: 36 °C

SMILES: Cc1ccc(-c2nc(CCCCCCOC(C)(C)c3nnn[nH]3)c(C)o2)cc1 [Example 86, 5-[1-Methyl-1-{6-[5-methyl-2-(p-tolyl)oxazol-4-yl]hexyloxy}ethyl]tetrazole]
- melting point: 87 °C

SMILES: Cc1c(C)c2c(c(C)c1O)CCC(C)(COc1ccc(CC3SC(=O)NC3=O)cc1)O2 (stereo not shown) [Troglitazone, 5-[4-(6-hydroxy-2,5,7,8-tetramethylchroman-2-ylmethoxy)benzyl]-2,4-thiazolidinedione, reference compound]
- Percent change of each parameter compared to control group (%): AI (KK-A^y mice; dose 300 mg/kg): −7%
- Percent change of each parameter compared to control group (%): BG (KK-A^y mice; dose 300 mg/kg): −9%
- Percent change of each parameter compared to control group (%): Ins (KK-A^y mice; dose 300 mg/kg): −22%
- Percent change of each parameter compared to control group (%): TG (KK-A^y mice; dose 300 mg/kg): −11%
- Percent change of each parameter compared to control group (%): HDL-C (KK-A^y mice; dose 300 mg/kg): −8%
- Percent change of each parameter compared to control group (%): (V)LDL-C (KK-A^y mice; dose 300 mg/kg): −26%
